According to US8129366B2, “VLA-4 inhibitory drug” (Daiichi Sankyo Company, Limited, priority 2005, dated 2012):

Biological target: T1, hα4 and β1 integrins (Homo sapiens, UniProt P05556+P13612)
T1 construct: expressed in transfected cells; host or cells: CHO cells
Assay: In vitro inhibition of binding between CHO cells expressing hα4 and β1 integrins and Eu3+-hVCAM-1 D1D7-IgG
Details: for Ki: CHO cells expressing hα4 and β1 integrins, Eu3+-hVCAM-1 D1D7-IgG ligand, without HSA; for IC50: in the presence of 3% human serum albumin (HSA final concentration 3%)
Procedure: CHO cells which forcibly expressed hα4 and β1 integrins through transfection thereof, were inoculated into a Costar 3599 plate (3×10^4 cells/100 μl/well), and cultured for two days. The cells in the wells were washed two times with buffer A*, and then Eu^3+-hVCAM-1 D1D7-IgG diluted with assay buffer** to 2 nM was added in an amount of 50 μl/well. The substance under test diluted with 26 DMSO-assay buffer (in the co-presence or absence of 6% human serum albumin) was added in an amount of 50 μl/well (adding separately diluted solution to the wells for performing Scatchard analysis), the contents were stirred for 5 minutes with a plate mixer, and then the plate was left to stand still for one hour at room temperature. The binding inhibitory activity in the presence of human serum albumin (HSA) was examined by diluting the specimen with 26 DMSO-assay buffer containing 6% HSA (SIGMA Corp., c/n A-1653), and adding the resultant (HSA final concentration 3%). After 30 to 60 minutes of the addition of specimen, the plate contents were washed 4 times with buffer A at 4° C., an enhancing reagent (DELFIA SA) was added in an amount of 100 μl/well, and the plate was shaken for 5 minutes using a plate mixer. Subsequently, the fluorescence intensity was measured with a time-resolved fluorometer (DELFIA Wallac). The IC50 of the substance under test (the concentration for 50% inhibition of the binding between CHO cells and Eu^3+-hVCAM-1 D1D7-IgG) was determined from the binding rate obtained from the calculating expression of [(FT−FNS)−(FI−FNS)]/[(FT−FNS)]×100. Here, FT represents the fluorescence intensity of a well not containing the substance under test; FNS represents the fluorescence intensity of a well not containing the substance under test and hVCAM-1 D1D7-IgG; and FI represents the fluorescence intensity of a well containing the substance under test. The Kd value which represents the strength of binding, and Bmax (maximum binding amount) were estimated to be in the range of 0.06 to 20 nM according to the Scatchard analysis method. The evaluation results of the Ki value of the substance under test, and of the IC50 value in the presence of 3% HSA are presented in Tables 2 to 7.
The Ki value was calculated according to the above-described expression. ([L] is the ligand concentration)
[* buffer A: 25 mM HEPES (pH 7.5), 150 mM NaCl, 1 mM Ca^2+, 1 mM Mg^2+, 4 mM Mn2+;
** assay buffer: 25 mM HEPES (pH=7.5), 150 mM NaCl, 1 mM Ca^2+, 1 mM Mg^2+, 4 mM Mn^2+, 0.1% BSA, 20 μM DTPA, with/without 6% ALBUMIN, HUMAN SERUM (C/N A-1653, SIGMA)]

T1 sequence (P13612 34-1032): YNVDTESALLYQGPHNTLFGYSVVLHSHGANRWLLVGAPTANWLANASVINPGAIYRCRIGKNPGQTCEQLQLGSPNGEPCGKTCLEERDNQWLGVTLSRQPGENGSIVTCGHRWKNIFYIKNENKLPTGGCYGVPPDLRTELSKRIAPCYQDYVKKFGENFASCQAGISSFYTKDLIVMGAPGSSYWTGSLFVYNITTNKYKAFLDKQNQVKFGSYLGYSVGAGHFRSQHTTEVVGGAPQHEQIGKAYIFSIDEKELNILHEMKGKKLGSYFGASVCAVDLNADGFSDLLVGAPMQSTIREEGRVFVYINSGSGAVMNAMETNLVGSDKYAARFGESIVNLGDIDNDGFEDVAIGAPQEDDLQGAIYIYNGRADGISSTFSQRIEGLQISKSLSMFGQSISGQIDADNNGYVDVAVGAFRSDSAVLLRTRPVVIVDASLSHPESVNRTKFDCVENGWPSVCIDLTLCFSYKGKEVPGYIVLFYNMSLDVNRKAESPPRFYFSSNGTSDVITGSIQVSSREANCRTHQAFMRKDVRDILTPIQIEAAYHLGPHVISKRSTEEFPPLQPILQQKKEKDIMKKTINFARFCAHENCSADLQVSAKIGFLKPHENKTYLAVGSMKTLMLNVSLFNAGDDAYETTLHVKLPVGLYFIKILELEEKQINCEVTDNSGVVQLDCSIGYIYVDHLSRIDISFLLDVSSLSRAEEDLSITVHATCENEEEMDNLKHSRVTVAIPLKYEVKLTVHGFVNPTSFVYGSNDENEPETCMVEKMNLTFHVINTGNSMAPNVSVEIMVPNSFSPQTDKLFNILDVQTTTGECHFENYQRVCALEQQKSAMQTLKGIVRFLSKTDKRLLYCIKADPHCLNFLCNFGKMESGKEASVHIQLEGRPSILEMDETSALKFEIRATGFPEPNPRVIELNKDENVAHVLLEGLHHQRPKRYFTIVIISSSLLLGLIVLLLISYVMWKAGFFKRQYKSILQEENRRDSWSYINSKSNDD
T1 sequence (P05556 21-798): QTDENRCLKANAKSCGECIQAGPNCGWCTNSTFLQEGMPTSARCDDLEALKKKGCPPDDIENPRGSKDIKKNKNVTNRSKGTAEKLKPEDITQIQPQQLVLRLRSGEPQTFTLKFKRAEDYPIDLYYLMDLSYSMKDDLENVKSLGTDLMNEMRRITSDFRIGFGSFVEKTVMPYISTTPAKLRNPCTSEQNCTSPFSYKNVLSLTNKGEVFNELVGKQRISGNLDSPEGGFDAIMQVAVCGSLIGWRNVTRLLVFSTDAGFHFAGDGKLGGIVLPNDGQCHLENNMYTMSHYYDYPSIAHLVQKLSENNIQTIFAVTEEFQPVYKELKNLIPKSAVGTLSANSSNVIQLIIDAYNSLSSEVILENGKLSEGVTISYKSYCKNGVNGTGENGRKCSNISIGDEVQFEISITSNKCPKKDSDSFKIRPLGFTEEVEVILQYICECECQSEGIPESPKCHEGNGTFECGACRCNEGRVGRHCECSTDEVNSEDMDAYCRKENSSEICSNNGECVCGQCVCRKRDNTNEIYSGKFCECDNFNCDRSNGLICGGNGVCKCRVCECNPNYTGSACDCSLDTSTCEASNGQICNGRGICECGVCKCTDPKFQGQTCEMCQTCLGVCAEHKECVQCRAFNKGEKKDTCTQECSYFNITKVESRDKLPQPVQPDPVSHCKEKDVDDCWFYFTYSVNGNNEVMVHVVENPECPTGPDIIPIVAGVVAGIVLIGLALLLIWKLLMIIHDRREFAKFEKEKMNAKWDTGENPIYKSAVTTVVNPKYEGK

Ki	IC50	Structure (SMILES)
0.89 nM	3 nM	CC1CCN([C@H]2C[C@@H](CO[C@H]3CC[C@H](C(=O)O)CC3)N(C(=O)Cc3cc(Cl)c(NC(=O)c4csc5ccccc45)cc3F)C2)CC1 [Example 98, Trans-4-[1-[[4-[(benzo[b]thiophen-3-ylcarbonyl)amino]-5-chloro-2-fluorophenyl]acetyl]-(4S)-(4-methylpiperidin-1-yl)-(2S)-pyrrolidinylmethoxy]cyclohexanecarboxylic acid]
0.91 nM	3.9 nM	O=C(Nc1cc(F)c(CC(=O)N2C[C@@H](N3CCC(F)CC3)C[C@H]2CO[C@H]2CC[C@H](C(=O)O)CC2)cc1Cl)c1csc2ccccc12 [Example 100, Trans-4-[1-[[4-[(benzo[b]thiophen-3-ylcarbonyl)amino]-5-chloro-2-fluorophenyl]acetyl]-(4S)-(4-fluoropiperidin-1-yl)-(2S)-pyrrolidinylmethoxy]cyclohexanecarboxylic acid]
4 nM	17 nM	Cn1cc(C(=O)Nc2cc(F)c(CC(=O)N3C[C@@H](N4CCC(F)(F)CC4)C[C@H]3CO[C@H]3CC[C@H](C(=O)O)CC3)cc2Cl)c2ccccc21 [Example 101, Trans-4-[1-[[5-chloro-2-fluoro-4-[(1-methyl-1H-indol-3-ylcarbonyl)amino]phenyl]acetyl]-(4S)-(4,4-difluoropiperidin-1-yl)-(2S)-pyrrolidinylmethoxy]cyclohexanecarboxylic acid]
1.2 nM	33 nM	O=C(Nc1cc(F)c(CC(=O)N2C[C@@H](N3CCC(Oc4ccccc4)CC3)C[C@H]2CO[C@H]2CC[C@H](C(=O)O)CC2)cc1Cl)c1csc2ccccc12 [Example 102]
4.9 nM	13 nM	COC1CCN([C@H]2C[C@@H](CC[C@H]3CC[C@H](C(=O)O)CC3)N(C(=O)Cc3cc(Cl)c(NC(=O)c4cn(C)c5ccccc45)cc3Cl)C2)CC1 [Example 104, Trans-4-[2-[1-[[2,5-dichloro-4-[(1-methyl-1H-indol-3-ylcarbonyl)amino]phenyl]acetyl]-(4S)-(4-methoxypiperidin-1-yl)-(2S)-pyrrolidinyl]ethyl]cyclohexanecarboxylic acid]
2 nM	15 nM	CCOC1CCN([C@H]2C[C@@H](CO[C@H]3CC[C@H](C(=O)O)CC3)N(C(=O)Cc3cc(Cl)c(NC(=O)c4coc5ccccc45)cc3Cl)C2)CC1 [Example 105, Trans-4-[1-[[4-[(benzo[b]furan-3-ylcarbonyl)amino]-2,5-dichlorophenyl]acetyl]-(4S)-(4-ethoxypiperidin-1-yl)-(2S)-pyrrolidinylmethoxy]cyclohexanecarboxylic acid]

More lines, now with the values behind:

Structure (SMILES)	Ki	IC50
C[C@@H]1CN([C@H]2C[C@@H](CO[C@H]3CC[C@H](C(=O)O)CC3)N(C(=O)Cc3cc(Cl)c(NC(=O)c4csc5ccccc45)cc3Cl)C2)C[C@H](C)O1 [Example 82, Trans-4-[1-[[4-[(benzo[b]thiophen-3-ylcarbonyl)amino]-2,5-dichlorophenyl]acetyl]-(4S)-(cis-2,6-dimethylmorpholin-4-yl)-(2S)-pyrrolidinylmethoxy]cyclohexanecarboxylic acid]	2.4 nM	18 nM
C[C@@H]1CN([C@H]2C[C@@H](CO[C@H]3CC[C@H](C(=O)O)CC3)N(C(=O)Cc3cc(Cl)c(NC(=O)c4coc5ccccc45)cc3F)C2)C[C@H](C)O1 [Example 84, Trans-4-[1-[[4-[(benzo[b]furan-3-ylcarbonyl)amino]-5-chloro-2-fluorophenyl]acetyl]-(4S)-(cis-2,6-dimethylmorpholin-4-yl)-(2S)-pyrrolidinylmethoxy]cyclohexanecarboxylic acid]	2.4 nM	23 nM
C[C@@H]1CN([C@H]2C[C@@H](CO[C@H]3CC[C@H](C(=O)O)CC3)N(C(=O)Cc3ccc(NC(=O)c4cn(C)c5ccccc45)c(Cl)c3)C2)C[C@H](C)O1 [Example 85, Trans-4-[1-[[3-chloro-4-[(1-methyl-1H-indol-3-ylcarbonyl)amino]phenyl]acetyl]-(4S)-(cis-2,6-dimethylmorpholin-4-yl)-(2S)-pyrrolidinylmethoxy]cyclohexanecarboxylic acid]	2 nM	9.2 nM
C[C@@H]1CN([C@H]2C[C@@H](CO[C@H]3CC[C@H](C(=O)O)CC3)N(C(=O)Cc3cc(Cl)c(NC(=O)c4c[nH]c5ccccc45)cc3Cl)C2)C[C@H](C)O1 [Example 89, Trans-4-[1-[[2,5-dichloro-4-[(1H-indol-3-ylcarbonyl)amino]phenyl]acetyl]-(4S)-(cis-2,6-dimethylmorpholin-4-yl)-(2S)-pyrrolidinylmethoxy]cyclohexanecarboxylic acid]	0.96 nM	2.3 nM
C[C@@H]1CN([C@H]2C[C@@H](CO[C@H]3CC[C@H](C(=O)O)CC3)N(C(=O)Cc3cc(Cl)c(NC(=O)c4c[nH]c5ccccc45)cc3F)C2)C[C@H](C)O1 [Example 90, Trans-4-[1-[[5-chloro-2-fluoro-4-[(1H-indol-3-ylcarbonyl)amino]phenyl]acetyl]-(4S)-(cis-2,6-dimethylmorpholin-4-yl)-(2S)-pyrrolidinylmethoxy]cyclohexanecarboxylic acid]	1.2 nM	2.4 nM
CC1CN([C@H]2C[C@@H](CO[C@H]3CC[C@H](C(=O)O)CC3)N(C(=O)Cc3cc(Cl)c(NC(=O)c4cn(C)c5ccccc45)cc3Cl)C2)CC(C)O1 (stereo partly drawn) [Example 91, Trans-4-[1-[[2,5-dichloro-4-[(1-methyl-1H-indol-3-ylcarbonyl)amino]phenyl]acetyl]-(4S)-(2,6-dimethylmorpholin-4-yl)-(2S)-pyrrolidinylmethoxy]cyclohexanecarboxylic acid]	2.4 nM	81 nM
C[C@@H]1CN([C@H]2C[C@@H](CO[C@H]3CC[C@H](C(=O)O)CC3)N(C(=O)Cc3ccc(NC(=O)c4csc5ccccc45)c(Cl)c3)C2)C[C@H](C)O1 [Example 92, Trans-4-[1-[[4-[(benzo[b]thiophen-3-ylcarbonyl)amino]-3-chlorophenyl]acetyl]-(4S)-(cis-2,6-dimethylmorpholin-4-yl)-(2S)-pyrrolidinylmethoxy]cyclohexanecarboxylic acid]	1.2 nM	10 nM
C[C@@H]1COC[C@H](C)N1[C@H]1C[C@@H](CO[C@H]2CC[C@H](C(=O)O)CC2)N(C(=O)Cc2cc(Cl)c(NC(=O)c3cn(C)c4ccccc34)cc2Cl)C1 [Example 93, Trans-4-[1-[[2,5-dichloro-4-[(1-methyl-1H-indol-3-ylcarbonyl)amino]phenyl]acetyl]-(4S)-(cis-3,5-dimethylmorpholin-4-yl)-(2S)-pyrrolidinylmethoxy]cyclohexanecarboxylic acid]	3.6 nM	22 nM
O=C(Nc1cc(Cl)c(CC(=O)N2C[C@@H](N3CCCCC3)C[C@H]2CO[C@H]2CC[C@H](C(=O)O)CC2)cc1Cl)c1csc2ccccc12 [Example 95, Trans-4-[1-[[4-[(benzo[b]thiophen-3-ylcarbonyl)amino]-2,5-dichlorophenyl]acetyl]-(4S)-(piperidin-1-yl)-(2S)-pyrrolidinylmethoxy]cyclohexanecarboxylic acid]	1.3 nM	5.3 nM
Cn1cc(C(=O)Nc2cc(Cl)c(CC(=O)N3C[C@@H](N4CCCCC4)C[C@H]3CO[C@H]3CC[C@H](C(=O)O)CC3)cc2Cl)c2ccccc21 [Example 96, Trans-4-[1-[[2,5-dichloro-4-[(1-methyl-1H-indol-3-ylcarbonyl)amino]phenyl]acetyl]-(4S)-(piperidin-1-yl)-(2S)-pyrrolidinylmethoxy]cyclohexanecarboxylic acid]	3.9 nM	7.4 nM
CCO[C@H]1[C@H](N2CCCCC2)CN(C(=O)Cc2cc(Cl)c(NC(=O)c3cn(C)c4ccccc34)cc2F)[C@@H]1CO[C@H]1CC[C@H](C(=O)O)CC1 [Example 97, Trans-4-[1-[[5-chloro-2-fluoro-4-[(1-methyl-1H-indol-3-ylcarbonyl)amino]phenyl]acetyl]-(3R)-ethoxy-(4R)-(piperidin-1-yl)-(2R)-pyrrolidinylmethoxy]cyclohexanecarboxylic acid]	1.6 nM	4.9 nM
